Eight compounds from publication PMC9927415, “Tyrosine Kinase Inhibitors Display Potent Activity against Cryptosporidium parvum” (Microbiology Spectrum, 2022) can be followed below.

Usually inhibition stands for the share of the control response that was lost under treatment.

Common to all, as to experiment: KINOMEscan competitive binding
One assay has as its target T1, PTK2B (Homo sapiens, UniProt Q14289).
T1 construct: purchased DiscoverX (KINOMEscan)
The settings on record: n=1, read-out: Percent inhibition, PTK2B.

A further assay concerns the target T2, PAK4 (Homo sapiens, UniProt O96013).
T2 construct: purchased DiscoverX (KINOMEscan)
Particulars: n=1, read-out: Percent inhibition, PAK4.

A further assay addresses T3, BIKE (Homo sapiens, UniProt Q9NSY1).
T3 construct: purchased DiscoverX (KINOMEscan)
From the text: (§1) The kinases were expressed as fusions to T7 bacteriophage. This is a sensitive, competitive binding assay where test compounds were used to displace immobilized ATP-site binding probe ligands from kinases of interest. The amount of kinase that remained bound to the immobilized probe ligands on the solid support was quantified. Percentage inhibition data were was plotted on kinome trees using the web-based tool KinMap (http://www.kinhub.org/kinmap) ([60]).

The target of another assay is T4, CSNK1D (Homo sapiens, UniProt P48730).
T4 construct: purchased DiscoverX (KINOMEscan)
The settings on record: 10 µM, n=1; kinase CSNK1D; read-out: Percent inhibition CSNK1D.
Excerpt: as §1

The next assay deals with T5, AXL (Homo sapiens, UniProt P30530).
T5 construct: purchased DiscoverX (KINOMEscan)
T5 sequence (P30530 26-894): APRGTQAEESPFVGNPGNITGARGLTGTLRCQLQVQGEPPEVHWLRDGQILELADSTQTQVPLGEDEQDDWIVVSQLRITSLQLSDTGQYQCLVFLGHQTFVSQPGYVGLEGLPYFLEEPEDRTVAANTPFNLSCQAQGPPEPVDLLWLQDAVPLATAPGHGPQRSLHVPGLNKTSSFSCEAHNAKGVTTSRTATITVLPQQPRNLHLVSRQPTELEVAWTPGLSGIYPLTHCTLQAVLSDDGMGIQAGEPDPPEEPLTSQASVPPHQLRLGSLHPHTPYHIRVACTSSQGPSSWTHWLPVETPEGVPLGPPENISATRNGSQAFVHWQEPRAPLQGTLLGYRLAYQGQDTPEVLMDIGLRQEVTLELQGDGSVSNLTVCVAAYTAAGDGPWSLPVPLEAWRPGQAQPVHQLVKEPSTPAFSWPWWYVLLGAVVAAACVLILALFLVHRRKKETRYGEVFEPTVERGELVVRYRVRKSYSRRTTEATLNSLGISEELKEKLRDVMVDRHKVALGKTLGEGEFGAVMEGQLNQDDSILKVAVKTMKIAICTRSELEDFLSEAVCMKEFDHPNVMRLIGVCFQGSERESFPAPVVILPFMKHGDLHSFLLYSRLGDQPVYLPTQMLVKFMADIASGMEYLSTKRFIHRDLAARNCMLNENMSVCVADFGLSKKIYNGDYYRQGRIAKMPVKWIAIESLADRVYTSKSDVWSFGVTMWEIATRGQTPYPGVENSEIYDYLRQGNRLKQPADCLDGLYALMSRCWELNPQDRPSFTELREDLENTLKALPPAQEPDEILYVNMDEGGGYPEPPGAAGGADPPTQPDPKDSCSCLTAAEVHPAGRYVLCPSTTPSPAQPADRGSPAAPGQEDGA
Excerpt: as §1

The target in the next assay is T6, FLT1 (Homo sapiens, UniProt P17948).
T6 construct: purchased DiscoverX (KINOMEscan)
The settings on record: for inhibition at 10 µM: n=1, kinase FLT1, read-out: Percent inhibition FLT1.
Excerpt: as §1

The target of a further assay is T7, PLK1 (Homo sapiens, UniProt P53350).
T7 construct: purchased DiscoverX (KINOMEscan)
The settings on record: n=1, read-out: Percent inhibition, PLK1.
Excerpt: as §1

A further assay concerns the target T8, AAK1 (Homo sapiens, UniProt Q2M2I8).
T8 construct: purchased DiscoverX (KINOMEscan)
Excerpt: as §1

The next assay addresses T9, CLK1 (Homo sapiens, UniProt P49759).
T9 construct: purchased DiscoverX (KINOMEscan)
The settings on record: 10 µM, n=1; kinase CLK1; read-out: Percent inhibition CLK1.
Excerpt: as §1

In another assay the target is T10, PDGFRα (Homo sapiens, UniProt P16234).
T10 construct: purchased DiscoverX (KINOMEscan)
Excerpt: as §1

The target of another assay is T11, Aurora kinase A (Homo sapiens, UniProt O14965).
T11 construct: purchased DiscoverX (KINOMEscan)
T11 sequence (O14965 1-403): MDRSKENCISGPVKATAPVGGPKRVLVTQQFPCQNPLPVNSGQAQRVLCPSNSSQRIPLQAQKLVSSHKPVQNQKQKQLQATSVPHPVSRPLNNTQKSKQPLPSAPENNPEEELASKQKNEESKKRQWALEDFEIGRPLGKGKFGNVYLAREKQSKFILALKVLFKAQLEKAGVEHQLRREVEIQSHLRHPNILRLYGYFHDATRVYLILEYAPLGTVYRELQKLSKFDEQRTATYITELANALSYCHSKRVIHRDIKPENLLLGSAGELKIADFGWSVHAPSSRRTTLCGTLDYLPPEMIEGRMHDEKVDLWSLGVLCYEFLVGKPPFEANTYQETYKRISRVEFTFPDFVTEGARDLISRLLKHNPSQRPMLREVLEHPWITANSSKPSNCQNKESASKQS
Excerpt: as §1

A further assay concerns the target T12, JAK1(JH2) (Homo sapiens, UniProt P23458).
T12 construct: JAK1(JH2); purchased DiscoverX (KINOMEscan)
The settings on record: 10 µM, n=1; kinase JAK1(Kin.Dom.1); read-out: Percent inhibition JAK1(Kin.Dom.1).
Excerpt: as §1

The target in a further assay is T13, CLK2 (Homo sapiens, UniProt P49760).
T13 construct: purchased DiscoverX (KINOMEscan)
The settings on record: 10 µM, n=1; kinase CLK2; read-out: Percent inhibition CLK2.
Excerpt: as §1

Where [1] appears, read: 10 µM, n=1, kinase BIKE, read-out: Percent inhibition BIKE.
The mark [2] stands for this setting: 10 µM, n=1, kinase AXL, read-out: Percent inhibition AXL.
The mark [3] stands for this setting: 10 µM, n=1, kinase AAK1, read-out: Percent inhibition AAK1.
Where [4] appears, read: KINOMEscan, 10 µM, n=1, read-out: Percent inhibition, PDGFRA.
The mark [5] stands for this setting: 10 µM, n=1, kinase AURKA, read-out: Percent inhibition AURKA.
The mark [6] stands for this setting: 10 μM, n = 1, read-out: percent inhibition Aurora kinase A.

Like-named read-outs stand apart in the source and are kept apart here.

T13 sequence (P49760 whole entry): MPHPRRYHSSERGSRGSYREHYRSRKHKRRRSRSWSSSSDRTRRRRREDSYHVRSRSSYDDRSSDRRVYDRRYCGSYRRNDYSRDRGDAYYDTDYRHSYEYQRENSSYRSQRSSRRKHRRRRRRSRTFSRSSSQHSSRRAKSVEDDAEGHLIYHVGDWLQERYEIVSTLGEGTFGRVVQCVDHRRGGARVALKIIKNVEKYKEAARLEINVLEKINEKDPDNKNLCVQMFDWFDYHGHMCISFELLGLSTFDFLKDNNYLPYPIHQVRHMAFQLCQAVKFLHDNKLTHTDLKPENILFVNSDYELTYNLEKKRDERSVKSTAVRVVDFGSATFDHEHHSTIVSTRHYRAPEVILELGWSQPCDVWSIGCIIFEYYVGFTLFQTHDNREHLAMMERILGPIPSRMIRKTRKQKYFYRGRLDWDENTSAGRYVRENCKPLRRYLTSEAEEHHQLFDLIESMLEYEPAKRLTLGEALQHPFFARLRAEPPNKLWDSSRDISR
T7 sequence (P53350 whole entry): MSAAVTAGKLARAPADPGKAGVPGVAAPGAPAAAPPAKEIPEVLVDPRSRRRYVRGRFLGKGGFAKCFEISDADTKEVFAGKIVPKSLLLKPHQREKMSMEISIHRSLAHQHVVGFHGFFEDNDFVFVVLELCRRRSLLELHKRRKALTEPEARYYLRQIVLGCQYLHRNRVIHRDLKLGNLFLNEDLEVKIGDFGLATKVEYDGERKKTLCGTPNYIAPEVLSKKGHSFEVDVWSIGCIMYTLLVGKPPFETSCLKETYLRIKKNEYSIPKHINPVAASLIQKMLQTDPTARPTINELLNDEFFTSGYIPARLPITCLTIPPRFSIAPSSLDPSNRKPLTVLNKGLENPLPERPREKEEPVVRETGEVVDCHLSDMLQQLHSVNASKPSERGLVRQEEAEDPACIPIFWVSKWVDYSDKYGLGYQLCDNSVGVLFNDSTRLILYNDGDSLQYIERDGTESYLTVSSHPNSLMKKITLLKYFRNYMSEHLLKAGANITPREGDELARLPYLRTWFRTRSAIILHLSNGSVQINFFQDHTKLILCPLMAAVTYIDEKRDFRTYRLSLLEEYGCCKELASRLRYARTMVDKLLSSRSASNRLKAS
T3 sequence (Q9NSY1 whole entry): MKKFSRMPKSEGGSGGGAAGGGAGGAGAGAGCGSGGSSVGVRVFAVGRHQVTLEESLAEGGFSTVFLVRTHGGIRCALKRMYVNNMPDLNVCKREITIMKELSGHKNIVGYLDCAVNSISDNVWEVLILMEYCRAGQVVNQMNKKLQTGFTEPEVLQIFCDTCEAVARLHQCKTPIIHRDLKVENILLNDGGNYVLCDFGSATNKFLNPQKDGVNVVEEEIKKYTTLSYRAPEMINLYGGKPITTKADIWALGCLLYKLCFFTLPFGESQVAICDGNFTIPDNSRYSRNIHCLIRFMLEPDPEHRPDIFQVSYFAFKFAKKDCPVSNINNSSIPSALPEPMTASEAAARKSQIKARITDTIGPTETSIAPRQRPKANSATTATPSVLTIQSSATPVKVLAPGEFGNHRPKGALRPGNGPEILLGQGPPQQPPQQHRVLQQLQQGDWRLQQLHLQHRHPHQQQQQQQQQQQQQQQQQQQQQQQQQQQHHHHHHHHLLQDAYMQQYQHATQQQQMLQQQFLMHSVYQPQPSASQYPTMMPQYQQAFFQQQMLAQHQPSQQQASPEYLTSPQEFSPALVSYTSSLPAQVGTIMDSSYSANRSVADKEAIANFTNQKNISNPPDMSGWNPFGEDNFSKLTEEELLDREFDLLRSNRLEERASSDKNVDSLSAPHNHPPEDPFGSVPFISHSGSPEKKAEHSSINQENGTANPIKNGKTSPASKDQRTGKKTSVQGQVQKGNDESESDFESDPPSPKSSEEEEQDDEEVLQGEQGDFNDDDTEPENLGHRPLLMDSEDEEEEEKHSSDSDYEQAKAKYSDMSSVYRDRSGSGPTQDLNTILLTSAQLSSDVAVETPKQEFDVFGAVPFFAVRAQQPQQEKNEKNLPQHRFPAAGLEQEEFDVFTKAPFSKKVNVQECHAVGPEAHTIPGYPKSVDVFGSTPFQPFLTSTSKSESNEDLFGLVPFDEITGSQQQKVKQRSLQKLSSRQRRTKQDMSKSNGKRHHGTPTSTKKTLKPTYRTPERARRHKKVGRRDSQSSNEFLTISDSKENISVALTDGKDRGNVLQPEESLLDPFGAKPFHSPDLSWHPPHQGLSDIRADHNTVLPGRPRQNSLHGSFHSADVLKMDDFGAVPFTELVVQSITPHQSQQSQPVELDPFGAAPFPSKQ
T4 sequence (P48730 whole entry): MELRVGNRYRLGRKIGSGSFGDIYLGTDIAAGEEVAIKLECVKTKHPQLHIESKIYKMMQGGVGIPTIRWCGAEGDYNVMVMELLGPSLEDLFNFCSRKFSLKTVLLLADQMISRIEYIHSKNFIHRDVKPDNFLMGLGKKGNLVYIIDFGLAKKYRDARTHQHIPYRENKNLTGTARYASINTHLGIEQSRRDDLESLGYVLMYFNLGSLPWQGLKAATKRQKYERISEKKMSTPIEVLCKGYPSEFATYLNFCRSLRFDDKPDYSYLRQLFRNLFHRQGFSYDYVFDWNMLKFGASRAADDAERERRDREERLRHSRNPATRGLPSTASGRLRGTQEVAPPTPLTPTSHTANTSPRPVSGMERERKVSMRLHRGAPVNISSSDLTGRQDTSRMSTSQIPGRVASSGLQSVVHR
T10 sequence (P16234 24-1089): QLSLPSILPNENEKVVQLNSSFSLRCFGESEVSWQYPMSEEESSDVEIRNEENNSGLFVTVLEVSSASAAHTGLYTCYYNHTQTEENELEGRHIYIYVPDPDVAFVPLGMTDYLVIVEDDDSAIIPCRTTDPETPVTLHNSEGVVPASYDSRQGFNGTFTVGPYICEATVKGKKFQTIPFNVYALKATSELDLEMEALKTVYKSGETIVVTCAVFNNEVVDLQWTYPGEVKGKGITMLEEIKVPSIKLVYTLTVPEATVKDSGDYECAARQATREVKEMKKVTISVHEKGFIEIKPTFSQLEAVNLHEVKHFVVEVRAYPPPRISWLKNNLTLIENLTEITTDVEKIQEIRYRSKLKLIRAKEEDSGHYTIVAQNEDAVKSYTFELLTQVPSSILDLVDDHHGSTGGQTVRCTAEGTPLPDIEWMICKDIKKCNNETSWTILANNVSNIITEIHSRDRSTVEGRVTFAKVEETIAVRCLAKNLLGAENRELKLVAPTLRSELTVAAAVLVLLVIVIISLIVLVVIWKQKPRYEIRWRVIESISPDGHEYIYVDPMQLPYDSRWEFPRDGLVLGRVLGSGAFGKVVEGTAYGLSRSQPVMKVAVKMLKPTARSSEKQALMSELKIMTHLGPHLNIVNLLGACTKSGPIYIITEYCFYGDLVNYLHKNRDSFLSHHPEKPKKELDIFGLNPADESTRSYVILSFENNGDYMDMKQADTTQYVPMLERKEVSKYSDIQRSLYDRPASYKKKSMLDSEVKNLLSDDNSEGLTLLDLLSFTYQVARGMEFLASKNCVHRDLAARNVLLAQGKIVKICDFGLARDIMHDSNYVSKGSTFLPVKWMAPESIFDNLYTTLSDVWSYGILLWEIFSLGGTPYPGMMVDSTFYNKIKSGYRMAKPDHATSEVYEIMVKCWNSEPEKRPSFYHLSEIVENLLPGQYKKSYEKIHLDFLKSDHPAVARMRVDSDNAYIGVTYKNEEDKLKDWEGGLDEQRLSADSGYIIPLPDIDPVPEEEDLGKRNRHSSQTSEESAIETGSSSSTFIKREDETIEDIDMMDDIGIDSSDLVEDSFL
T6 sequence (P17948 27-1338): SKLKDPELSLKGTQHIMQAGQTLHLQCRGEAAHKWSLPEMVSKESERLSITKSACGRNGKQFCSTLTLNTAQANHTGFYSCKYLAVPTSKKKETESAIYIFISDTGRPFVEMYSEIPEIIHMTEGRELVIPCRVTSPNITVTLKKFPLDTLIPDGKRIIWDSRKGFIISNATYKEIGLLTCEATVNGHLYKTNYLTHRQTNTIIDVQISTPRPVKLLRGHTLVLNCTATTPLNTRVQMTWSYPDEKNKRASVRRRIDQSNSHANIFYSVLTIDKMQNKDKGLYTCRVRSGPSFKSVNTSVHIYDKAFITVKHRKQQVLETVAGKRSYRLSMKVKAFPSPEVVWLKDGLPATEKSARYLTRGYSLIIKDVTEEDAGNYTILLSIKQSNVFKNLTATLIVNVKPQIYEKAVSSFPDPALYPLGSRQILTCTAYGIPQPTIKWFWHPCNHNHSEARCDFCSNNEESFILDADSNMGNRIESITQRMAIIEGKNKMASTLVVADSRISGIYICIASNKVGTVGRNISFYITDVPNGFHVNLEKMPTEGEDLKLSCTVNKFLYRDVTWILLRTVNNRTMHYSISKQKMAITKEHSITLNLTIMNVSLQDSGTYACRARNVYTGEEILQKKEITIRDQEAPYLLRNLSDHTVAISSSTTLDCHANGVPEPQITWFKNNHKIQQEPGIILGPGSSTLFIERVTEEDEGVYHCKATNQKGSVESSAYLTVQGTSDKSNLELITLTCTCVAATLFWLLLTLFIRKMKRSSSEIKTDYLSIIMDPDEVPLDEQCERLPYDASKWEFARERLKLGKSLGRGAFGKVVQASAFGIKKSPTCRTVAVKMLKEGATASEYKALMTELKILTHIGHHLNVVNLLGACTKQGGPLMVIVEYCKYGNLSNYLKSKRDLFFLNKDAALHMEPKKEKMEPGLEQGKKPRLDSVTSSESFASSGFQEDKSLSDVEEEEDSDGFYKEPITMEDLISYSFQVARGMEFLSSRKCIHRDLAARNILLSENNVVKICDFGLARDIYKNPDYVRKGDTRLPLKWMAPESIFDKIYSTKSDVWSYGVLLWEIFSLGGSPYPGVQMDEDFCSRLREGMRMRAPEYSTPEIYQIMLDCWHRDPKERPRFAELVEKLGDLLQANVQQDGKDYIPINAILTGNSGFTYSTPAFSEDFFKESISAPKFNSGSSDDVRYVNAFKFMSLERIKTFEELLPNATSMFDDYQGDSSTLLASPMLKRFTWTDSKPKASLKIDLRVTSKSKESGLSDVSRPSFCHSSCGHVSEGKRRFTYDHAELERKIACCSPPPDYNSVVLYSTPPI

On to `Cc1ccc(O)cc1Nc1ccnc(Nc2cccc(C(N)=O)c2)n1` [Compound 3], for which the inhibition at 10 µM at PTK2B came out at 83.8%; on PAK4, 0%; at BIKE (setting [1]), 0%; at CSNK1D, 100%; at AXL (setting [2]) it was 0%; on FLT1 it was 98.3%. Also, the inhibition at 10 µM was 0% on PLK1; 0% on AAK1 (setting [3]); 0% at CLK1; 99.2% at PDGFRα (setting [4]); 91.3% on Aurora kinase A (setting [5]); 0% at JAK1(JH2). Besides, at CLK2, the inhibition at 10 µM was found to be 91.5%.

`Clc1ccc(Nc2ncc(-c3ccccc3)s2)cc1` [Compound 10]: the inhibition at 10 µM at PTK2B, at PAK4, at BIKE (setting [1]), at CSNK1D, at AXL (setting [2]) and at FLT1 was 0% in each case. The inhibition at 10 µM was 0% at PLK1; 0% at AAK1 (setting [3]); 0% on CLK1; more than 90% at PDGFRα (10 μM, n = 1, read-out: percent inhibition PDGFRα); 98.9% at PDGFRα (setting [4]); 0% at Aurora kinase A (setting [5]). Besides, the inhibition at 10 µM on JAK1(JH2) and at CLK2 was 0% throughout. Moreover, the “inhibition of FLT1, in words” value on FLT1 (kinome profiling, 10 μM) is “relatively weak inhibition”.

In the case of `c1ccc(COc2cccc(-c3ccnc4[nH]ccc34)c2)cc1` [Compound 9], the inhibition at 10 µM on PTK2B was 0%; at PAK4, 0%; on BIKE (10 μM, n = 1, read-out: percent inhibition BIKE) it was not below 90%; at BIKE (setting [1]) it was 94.9%; on CSNK1D, 0%; on AXL (10 μM, n = 1, read-out: percent inhibition AXL) it was not below 90%. Moreover, the inhibition at 10 µM is 93.8% at AXL (setting [2]); 0% at FLT1; 0% at PLK1; not below 90% at AAK1 (10 μM, n = 1, read-out: percent inhibition AAK1); 95.1% on AAK1 (setting [3]); 0% on CLK1. Besides, the inhibition at 10 µM on PDGFRα (setting [4]), on Aurora kinase A (setting [5]), at JAK1(JH2) and on CLK2 was 0% in each case.

As for `Fc1cccc(COc2ccc(Nc3ncnc4c3CN(CCN3CCOCC3)CC4)cc2Cl)c1` [Compound 6], the inhibition at 10 µM on PTK2B, at PAK4, on BIKE (setting [1]), on CSNK1D, on AXL (setting [2]) and on FLT1 was 0% each time. For the same compound, the inhibition at 10 µM on PLK1, on AAK1 (setting [3]), at CLK1, on PDGFRα (setting [4]), at Aurora kinase A (setting [5]) and on JAK1(JH2) was 0% each time. Besides, on CLK2, the inhibition at 10 µM came to 0%.

On to `C[C@@H](Oc1cc(-c2cnc3ccccn23)sc1C(N)=O)c1ccccc1Cl` [Compound 8], for which the inhibition at 10 µM on PTK2B stood at 0%; at PAK4, 0%; on BIKE (setting [1]), 99.4%; at CSNK1D it was 0%; at AXL (setting [2]), 89%; at FLT1, 70%. For the same compound, the inhibition at 10 µM on AAK1 (setting [3]) was 97.5%; at CLK1, 92.7%; on PDGFRα (setting [4]), 0%; on Aurora kinase A (setting [5]), 0%; at JAK1(JH2) it was 87.8%; on CLK2, 0%.

Consider `CN1CCN(c2ccc(Nc3nccc(-c4cnn5ncccc45)n3)cc2C#N)CC1` [Compound 1], for which the inhibition at 10 µM at PTK2B stood at 83.9%; at PAK4, 95.7%; at BIKE (setting [1]), 99.1%; at CSNK1D, 100%; at AXL (setting [2]) it was 100%; on FLT1 it was 99.9%. For the same compound, the inhibition at 10 µM was 0% on PLK1; 99.9% at AAK1 (setting [3]); 99.9% on CLK1; 100% at PDGFRα (setting [4]); more than 90% on Aurora kinase A (setting [6]); 96.7% on Aurora kinase A (setting [5]). The inhibition at 10 µM at JAK1(JH2) and at CLK2 was 100% in each case.

Regarding `Cc1ccc(O)cc1N(C)c1ccnc(Nc2cccc(S(N)(=O)=O)c2)n1` [Compound 4], the inhibition at 10 µM came out at 99% on PTK2B; 0% on PAK4; 0% at BIKE (setting [1]); 100% at CSNK1D; 0% on AXL (setting [2]); 99.4% on FLT1. Besides, the inhibition at 10 µM stood at 0% on PLK1; 0% at AAK1 (setting [3]); 0% on CLK1; 100% at PDGFRα (setting [4]); 79.6% on Aurora kinase A (setting [5]); 0% on JAK1(JH2). At CLK2, the inhibition at 10 µM was 84.5%.

As to `COc1ccc(Nc2nccc(-c3cnn4ncccc34)n2)cc1` [Compound 2], the inhibition at 10 µM at PTK2B came out at 89.6%; at PAK4, 0%; on BIKE (setting [1]), 96.5%; at CSNK1D, 100%; at AXL (setting [2]), 77.8%; on FLT1, 99.5%. Moreover, the inhibition at 10 µM on PLK1 was 97.2%; at AAK1 (setting [3]), 99.7%; at CLK1 it was 99.8%; on PDGFRα (setting [4]) it was 99.9%; on Aurora kinase A (setting [6]), more than 90%; on Aurora kinase A (setting [5]), 91.1%. Besides, the figures for the inhibition at 10 µM at JAK1(JH2) and on CLK2 were 95.5% and 99.9%, respectively.
